Results taken from US6713491B2, “Heterocyclic derivatives” (priority 1999, dated 2004).

Legend:
[1] = molecular target: T1, strychnine insensitive glycine binding site associated with the NMDA receptor complex (Rattus norvegicus, UniProt P35439); assay: binding at the strychnine insensitive glycine binding site (procedure of Kishimoto H et al.)
T1 construct: from tissue; host or cells: rat CNS membranes (inferred from the cited procedure)
Experimental: (§1) The potent and selective action of the compound of the invention at the strychnine-insensitive glycine binding site present on the NMDA receptor complex may be readily determined using conventional test procedures. Thus the ability to bind at the strychnine insensitive glycine binding site was determined using the procedure of Kishimoto H et al., J Neurochem 1981, 37, 1015-1024. The selectivity of the action of compounds of the invention for the strychnine insensitive glycine site was confirmed in studies at other ionotropic known excitatory amino acid receptors.

[2] = tested on: kainic acid (kainate) receptor; assay: selectivity study at other ionotropic excitatory amino acid receptors: kainate; format: binding
Experimental: as §1

[3] = tested on: a-amino-3-hydroxy-5-methyl-4-isoxazole-proprionic acid (AMPA) receptor; assay: selectivity study at other ionotropic excitatory amino acid receptors: AMPA; format: binding
Experimental: as §1

NMDA binding site = assay: selectivity study at other ionotropic excitatory amino acid receptors: NMDA binding site
Experimental: as §1

mice = assay: tolerability on administration to mice; format: in vivo; conditions: pharmacological active doses

SMILES: CNC[C@H](O)[C@@H](O)[C@H](O)[C@H](O)CO.O=C(O)C1CC(=C2CCN(c3ccccc3)C2=O)c2ccc(Cl)cc2N1 (single isomer, unassigned; enantiomer a) [compound of the invention, meglumine salt of enantiomer A of 7-chloro-4-(2-oxo-1-phenyl-3-pyrrolidinylidene)-1,2,3,4-tetrahydro-2-quinolinecarboxylic acid]
- antagonism at the strychnine insensitive glycine binding site [1]: potent antagonist
- affinity for the kainic acid (kainate) receptor [2]: little or no affinity
- affinity for the AMPA receptor [3]: little or no affinity
- affinity at the NMDA binding site (NMDA binding site): little or no affinity
- untoward effects (mice): No untoward effects
